The test system of assay [1] is GC-B. The following applies: αT3-1 cells, cited from earlier work. An excerpt:
Experimental paradigms to investigate receptor desensitization are often performed in one of two ways: time-course studies of a single continuous exposure to ligand or pre-treatment and subsequent re-exposure to the same ligand. Our current studies involved the use of both of these approaches to examine particulate guanylyl cyclase signaling in GH3 cells, similar to previous studies investigating PACAP signaling in gonadotropes (McArdle and Forrest-Owen [1997]). Time-course studies of CNP-stimulated cGMP accumulation in GH3 cells have shown a rapid elevation of cGMP levels within 5 min of CNP ... || The other major mechanism mediating heterologous desensitization of GC-A and GC-B signaling is the PKC pathway (Potter et al. [2006]). We examined the effects of pre-treatment with TRH, PMA, or PACAP. […] This is in agreement with the predominant expression of vasoactive intestinal peptide activated receptor 2, which is known preferentially to activate cAMP and PKA (Hao et al. [2006]). In contrast, pre-treatments with two known activators of PKC, TRH and PMA do ...

The subject of assay [2] is GH3 cells. Nature of the assay: Basal cGMP accumulation in GH3 cells after pre-treatment. It counts as cell-based, rat. The following applies: 100 nM TRH, PMA or PACAP, 30 min pre-treatment; ns, P > 0.05; Fig. 7a. An excerpt: (§1) Sphingolipids and calcium have been implicated in regulating natriuretic peptide signaling (Abbey-Hosch et al. [2004]; Abbey and Potter [2002]). Therefore, we examined the role of sphingosine-1-phosphate (S1P) on CNP-stimulated cGMP accumulation. […] However, S1P pre-treatment did cause desensitization of CNP-stimulated cGMP accumulation (by 30 ± 2.7 % compared with control, **P < 0.01).
(§2) Fig. 6 Evidence of sphingosine-mediated but not calcium-mediated, heterologous desensitization of GC-B signaling in GH3 somatolactotrope cells. GH3 cells were pre-treated with PSS containing either (a, b) 10 μM sphingosine-1-phosphate (S1P) or (c, d) 1 μM A23187 (calcium ionophore) for 30 min in the absence of IBMX, before a 15-min stimulation with either 100 nM CNP (a, c) or 100 nM ANP (b, d) in the presence of 1 mM IBMX.
(§3) Subsequent experiments examined the potential regulation of GC-B signaling by other peptide hormones. To determine whether the GC-B receptor underwent heterologous desensitization in GH3 cells, the effect of three known activators of PKC on CNP-stimulated cGMP accumulation was analyzed. […] To establish whether the TRH-induced heterologous desensitization of GC-B signaling was PKC-dependent, GH3 cells were pre-treated with either 0 or 1 μM GF109203X for 30 min to inhibit PKC activity. After this, cells were further pre-treated in the absence or presence of GF109203X and 0 or 100 nM TRH for a further 30 min, prior to stimulation with 0 or 100 nM CNP for a final 15-min stimulation in the presence of 1 mM IBMX.
(§4) Fig. 7 Protein kinase C (PKC)-dependent heterologous desensitization mediates the effects of thyrotrophin-releasing hormone (TRH) on CNP-stimulated GC-B signaling in GH3 somatolactotrope cells. a GH3 cells were pre-treated with PSS containing either 0 or 100 nM TRH, phorbol-12-myristate-13-acetate (PMA), or pituitary adenylate cyclase-activating polypeptide (PACAP) for 30 min in the absence of IBMX, before a 15-min stimulation with either 0 or 100 nM CNP in the presence of 1 mM IBMX.

The test system of assay [3] is GC-B. The following applies: 293 T cells; ref Abbey-Hosch et al. [2005]; cited from earlier work. An excerpt: (§5) The other major mechanism mediating heterologous desensitization of GC-A and GC-B signaling is the PKC pathway (Potter et al. [2006]). We examined the effects of pre-treatment with TRH, PMA, or PACAP. […] This is in agreement with the predominant expression of vasoactive intestinal peptide activated receptor 2, which is known preferentially to activate cAMP and PKA (Hao et al. [2006]). In contrast, pre-treatments with two known activators of PKC, TRH and PMA do ...

Assay [4] has as its target T1, GC-B (Rattus norvegicus, UniProt P16067).
T1 construct: rapid homologous desensitization of endogenous GC-B receptors in GH3 cells; endogenous in cells; host or cells: GH3 rat somatolactotrope cells
T1 sequence (P16067 17-1047): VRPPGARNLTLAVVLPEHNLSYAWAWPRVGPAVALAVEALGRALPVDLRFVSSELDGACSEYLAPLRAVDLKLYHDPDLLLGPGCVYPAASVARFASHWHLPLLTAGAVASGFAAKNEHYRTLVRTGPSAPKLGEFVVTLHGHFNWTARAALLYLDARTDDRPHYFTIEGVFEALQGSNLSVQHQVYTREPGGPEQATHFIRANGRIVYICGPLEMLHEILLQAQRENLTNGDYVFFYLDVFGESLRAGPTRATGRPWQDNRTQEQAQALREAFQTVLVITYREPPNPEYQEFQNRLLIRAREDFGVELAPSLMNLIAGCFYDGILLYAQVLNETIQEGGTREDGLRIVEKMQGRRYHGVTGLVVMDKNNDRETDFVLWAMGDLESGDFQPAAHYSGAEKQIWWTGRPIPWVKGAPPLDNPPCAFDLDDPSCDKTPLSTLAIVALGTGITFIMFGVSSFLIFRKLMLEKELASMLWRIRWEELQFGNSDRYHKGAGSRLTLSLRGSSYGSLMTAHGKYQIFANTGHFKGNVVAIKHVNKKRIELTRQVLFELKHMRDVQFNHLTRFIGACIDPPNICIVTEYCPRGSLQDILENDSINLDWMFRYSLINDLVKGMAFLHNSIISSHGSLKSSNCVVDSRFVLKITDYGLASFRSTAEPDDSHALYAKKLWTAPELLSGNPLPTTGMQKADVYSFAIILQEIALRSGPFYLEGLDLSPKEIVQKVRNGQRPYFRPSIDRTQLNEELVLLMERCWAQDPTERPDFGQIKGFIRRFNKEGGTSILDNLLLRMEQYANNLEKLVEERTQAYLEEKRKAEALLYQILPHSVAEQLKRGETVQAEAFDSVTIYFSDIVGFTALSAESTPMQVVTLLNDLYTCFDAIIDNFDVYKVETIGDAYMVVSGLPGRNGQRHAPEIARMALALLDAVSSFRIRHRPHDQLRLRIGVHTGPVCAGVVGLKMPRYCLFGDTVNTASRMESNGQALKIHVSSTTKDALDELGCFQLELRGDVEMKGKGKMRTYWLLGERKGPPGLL
Description: Heterologous desensitization of CNP-stimulated (GC-B) cGMP accumulation in GH3 cells. The format is cell-based. The settings on record: then 100 nM CNP 15 min with 1 mM IBMX, n = 3.
Excerpt: as §1, §2, §3, §4

In assay [5] the test system is growth hormone secretion. The settings on record: ref Hartt et al. [1995]; Shimekake et al. [1994]; cited from earlier work. An excerpt:
Both humans and mice with mutations in the genes encoding either CNP or its receptor, GC-B, suffer from severe growth disorders (Chusho et al. [2001]) and, in some cases, growth hormone deficiency (Tamura et al. [2004]). Despite significant homology between the three natriuretic peptides and between their receptors, mutations in the genes encoding ANP, BNP, or GC-A fail to phenocopy CNP/GC-B-disrupted mice (Kishimoto et al. [2011]). Our recent observations of GC-B expression in normal fetal pituitary tissue and in a range of human pituitary adenomas (including those from acromegalics) strongly ...

Assay [6] relates to human airway smooth muscle cells. The settings on record: ref Hamad and Knox [1999]; cited from earlier work.
Excerpt: as §5

The text below walks through data of article PMC3921447, “Homologous and heterologous desensitization of guanylyl cyclase-B signaling in GH3 somatolactotropes” (Cell and Tissue Research, 2013).

Read-outs that look alike come from different tables or passages of the source. Ends that are not written are not given here.

Regarding `CCCCCCCCCCCCCC(=O)O[C@@H]1[C@@H](C)[C@@]2(O)[C@@H](C=C(CO)C[C@]3(O)C(=O)C(C)=C[C@@H]23)[C@@H]2C(C)(C)[C@]12OC(C)=O` [PMA, phorbol-12-myristate-13-acetate], the “desensitization of GC-B activity” value in assay [1] (ref Fowkes et al. [2000]) is “shown to desensitize GC-B activity in 293 T cells and αT3-1 cells”; in assay [3] it was “shown to desensitize GC-B activity in 293 T cells and αT3-1 cells”. For the same compound, the “basal cGMP accumulation” value in assay [2] is on record as “failed to alter basal cGMP accumulation”. Moreover, the “reduction in CNP-stimulated cGMP accumulation compared with control” value in assay [4] (100 nM, 30 min pre-treatment without IBMX, ***P < 0.001, Fig. 7a) is on record as 51.9 ± 2.8%.

Consider “gonadotrophin-releasing hormone (QHWSYGLRPG; ends and bridges not checked; UniProt P01148 24-33, looked up)”, for which the “heterologous desensitization of GC-B signaling” value in assay [1] (ref McArdle et al. [1994], Fowkes et al. [2000]) is given as “can cause the heterologous desensitization of GC-B signaling in αT3-1 cells”.

Consider `Nc1nc2c(ncn2[C@@H]2O[C@@H]3COP(=O)(O)O[C@H]3[C@H]2O)c(=O)[nH]1` [cGMP, cyclic guanosine 3’,5’ monophosphate], for which the growth hormone secretion entry in assay [5] is given as “act as growth hormone secretogogs”.

Regarding `CN(C)CCCn1cc(C2=C(c3c[nH]c4ccccc34)C(=O)NC2=O)c2ccccc21` [GF109203X], the “reversal of PKC-dependent desensitization” value in assay [6] is given as “capable of reversing the effect, as has been described previously in human airway smooth muscle cells”. Besides, the “CNP-stimulated cGMP, % of control response to CNP (TRH desensitization reversed to)” value in assay [4] (1 μM GF109203X 30 min, then GF109203X + 100 nM TRH 30 min, ns compared with control, Fig. 7b) is 76.4 ± 17.2%.
